Measured values published in US9920030B2 (priority 2006, dated 2018).
Read-outs that look alike come from different tables or passages of the source.

Assays:
Format in all cases: in vivo
[1] = test system: Plasmopara vilicola (the causal agent of grape downy mildew); test: Test A: grape downy mildew, test suspension sprayed on grape seedlings after inoculation, visual disease rating; conditions: for pest or weed control at 10 µg/mL: Plasmopara, 144 h, read-out: Percent Disease Control, Test A
Procedure, shortened: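 Curative spray: spores applied first, plants kept 24 h in saturated air at 20 °C and dried before treatment, then 5 days at 20 °C plus 24 h saturated. Suspension: acetone (3% of volume) in 1:1 acetone/water, 250 ppm Trem 014, sprayed to run-off (200 ppm ≈ 500 g/ha); visual 0–100 control rating.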

[2] = test system: Phytophthora infestans (the causal agent of tomato late blight); test: whole plant or invertebrate; conditions: for pest or weed control at 10 µg/mL: Phytophthora infestans, 144 h, read-out: Percent Disease Control, Test B
[3] = test system: Phytophthora infestans (the causal agent of tomato late blight); test: whole plant or invertebrate; conditions: for pest or weed control at 10 µg/mL: Phytophthora infestans, 96 h, read-out: Percent Disease Control, Test C
[4] = compounds without asterisk (application rate not given), 100 = 100% disease control, 0 = no control relative to the controls

Molecule	Percent Disease Control, Test A ([1]; * tested at 40 ppm) [%]	Percent Disease Control, Test B ([2]; * tested at 40 ppm) [%]	Percent Disease Control, Test C ([3]; * tested at 40 ppm) [%]	Percent Disease Control, Test A [1, 4] [%]	Percent Disease Control, Test B [2, 4] [%]	Percent Disease Control, Test C [3, 4] [%]	further results
CCCC1(c2ccccc2)CC(c2csc(C3CCN(C(=O)Cn4nc(C(F)(F)F)cc4C)CC3)n2)=NO1 (stereo not drawn) [Compound 101]	100	100	99	–	–	–	–
Cc1cc(C(F)(F)F)nn1CC(=O)N1CCC(c2nc(N3CC(c4ccccc4)OC3=O)cs2)CC1 (stereo not drawn) [Compound 242]	99	100	85	–	–	–	–
Cc1cc(C(F)(F)F)nn1CC(=O)N1CCC(c2nc(C3=NN(C)C(c4ccccc4)C3)cs2)CC1 (stereo not drawn) [Compound 184]	99	95	73	–	–	–	–
Cc1cc(C(F)(F)F)nn1CC(=O)N1CCC(c2nc(CN3C(=O)CCC3=O)cs2)CC1 [Compound 207]	–	–	–	40	83	0	–
Cc1cc(C(F)(F)F)nn1CC(=O)N1CCC(c2nc(-c3nc4ccccc4s3)cs2)CC1 [Compound 43]	–	–	–	0	43	0	–
COc1ccccc1C1CC(c2csc(C3CCN(C(=O)Cn4nc(C(F)(F)F)cc4C)CC3)n2)=NO1 (stereo not drawn) [Compound 131]	100	100	99	–	–	–	–
Cc1cc(C(F)(F)F)nn1CC(=O)N1CCC(c2nc(C3=NOC4(CCC(c5ccccc5)CC4)C3)cs2)CC1 (stereo not drawn) [Compound 104]	–	–	–	100	100	99	–
Cc1cc(C(F)(F)F)nn1CC(=O)N1CCC(c2nc(-c3nn(-c4ccccc4)c(=O)[nH]3)cs2)CC1 [Compound 82]	–	–	–	0	88	26	–
CC(=O)N1N=C(c2csc(C3CCN(C(=O)Cn4nc(C(F)(F)F)cc4C)CC3)n2)OC1(C)c1ccccc1 (stereo not drawn) [Compound 182]	–	–	–	99	100	97	–
Cc1cc(C(F)(F)F)nn1CC(=O)N1CCC(c2nc(-c3ccnn3-c3ccccc3)cs2)CC1 [Compound 78]	–	–	–	0	0	0	–
Cc1cc(C(F)(F)F)nn1CC(=O)N1CCC(c2nc(C3=NOC(N4CCCC4=O)C3)cs2)CC1 (stereo not drawn) [Compound 188]	99	100	99	–	–	–	–
Cc1cc(C(F)(F)F)nn1CC(=O)N1CCC(c2nc(C3=NOC(CCBr)C3)cs2)CC1 (stereo not drawn) [Compound 57]	–	–	–	99	100	99	–
Cc1cc(C(F)(F)F)nn1CC(=O)N1CCC(c2nc(C3=NCC(c4ccccc4)CO3)cs2)CC1 (stereo not drawn) [Compound 53]	24	68	26	–	–	–	–
Cc1ncsc1C1CC(c2csc(C3CCN(C(=O)Cn4nc(C(F)(F)F)cc4C)CC3)n2)=NO1 (stereo not drawn) [Compound 201]	99	100	99	–	–	–	–
Cc1cc(C(F)(F)F)nn1CC(=O)N1CCC(c2nc(C3=NOC(C4OCCO4)C3)cs2)CC1 (stereo not drawn) [Compound 199]	–	–	–	91	99	98	–
Cc1cc(C(F)(F)F)nn1CC(=O)N1CCC(c2nc(-c3cc(-c4ccc(F)cc4F)on3)cs2)CC1 [Compound 64]	–	–	–	90	99	88	–
Cc1cc(C(F)(F)F)nn1CC(=O)N1CCC(c2nc(C3=NOC(C4(C)CO4)C3)cs2)CC1 (stereo not drawn) [Compound 200]	–	–	–	80	100	90	–
CC(=O)N1CCC2(CC1)CC(c1csc(C3CCN(C(=O)Cn4nc(C(F)(F)F)cc4C)CC3)n1)=NO2 [Compound 196]	99	100	99	–	–	–	–
Cc1cc(C(F)(F)F)nn1CC(=O)N1CCC(c2nc(-c3cccc4ccccc34)cs2)CC1 [Compound 73]	–	–	–	27	40	0	–

Molecule	Percent Disease Control, Test A ([1]; * tested at 40 ppm) [%]	Percent Disease Control, Test B ([2]; * tested at 40 ppm) [%]	Percent Disease Control, Test C ([3]; * tested at 40 ppm) [%]	Percent Disease Control, Test A [1, 4] [%]	Percent Disease Control, Test B [2, 4] [%]	Percent Disease Control, Test C [3, 4] [%]	further results
O=C(Cn1nc(C(F)(F)F)cc1C(F)(F)F)N1CCC(c2nc(C3=NO[C@]4(CCCc5ccccc54)C3)cs2)CC1 (racemic) [Compound 229, 2-[3,5-bis(trifluoromethyl)-1H-pyrazol-1-yl]-1-[4-[4-[(1′R)-3′,4′-dihydrospiro[isoxazole-5(4H), 1′(2′H)-naphthalen]-3-yl]-2-thiazolyl]-1-piperidinyl]ethanone]	–	–	–	–	–	–	pest or weed control at 10 µg/mL ([1]; ** tested at l0 ppm): 100%; pest or weed control at 10 µg/mL [2]: 100%; pest or weed control at 10 µg/mL [3]: 100%
Cc1cc(C(F)(F)F)nn1CC(=O)N1CCC(c2nc(-c3cc(-c4ccc(Cl)c(Cl)c4)no3)cs2)CC1 [Compound 87]	–	–	–	76	44	0	–
Cc1cc(C(F)(F)F)nn1CC(=O)N1CCC(c2nc(C3=NC[C@@H](c4ccccc4)N3C)cs2)CC1 [Compound 118]	0	87	16	–	–	–	–
Cc1cc(C(F)(F)F)nn1CC(=O)N1CCC(c2nc(C3=NOC(c4ccccc4)(c4ccccc4)C3)cs2)CC1 [Compound 139]	87	98	87	–	–	–	–
CCc1ccc(-c2csc(C3CCN(C(=O)Cn4nc(C(F)(F)F)cc4C)CC3)n2)cc1 [Compound 268]	–	–	–	100	100	88	–
Cc1cc(C(F)(F)F)nn1CC(=O)N1CCC(c2nc(C3=NOC4(CCC(C)(c5ccccc5)CC4)C3)cs2)CC1 (single isomer, unassigned) [Compound 186]	95	100	86	–	–	–	–
1-[4-[4-(4,5-dihydro-5-phenyl-3-isoxazolyl)-2-thiazolyl]-3,6-dihydro-1(2H)-pyridinyl]-2-[5-methyl-3-(trifluoromethyl)-1H-pyrazol-1 yl]ethanone [Compound 217]	–	–	–	0	95	86	–
Cc1cc(C(F)(F)F)nn1CC(=O)N1CCC(c2nc(C3=NOC(c4ccncc4)C3)cs2)CC1 (stereo not drawn) [Compound 180]	–	–	–	50	100	99	–
O=C(Cn1nc(C(F)(F)F)cc1C(F)(F)F)N1CCC(c2nc(C3=NO[C@]4(CCc5ccccc54)C3)cs2)CC1 (racemic) [Compound 231, 2-[3,5-bis(trifluoromethyl)-1H-pyrazol-1-yl]-1-[4-[4-[(1R)-2,3-dihydrospiro[1H-indene-1,5′(4′1H)-isoxazol]-3′-yl]-2-thiazolyl]-1-piperidinyl]ethanone]	–	–	–	–	–	–	Percent Disease Control, Test A ([1]; ** tested at l0 ppm): 100%; Percent Disease Control, Test B ([2]; ** tested at l0 ppm): 100%; Percent Disease Control, Test C ([3]; ** tested at l0 ppm): 100%
Cc1cc(C(F)(F)F)nn1CC(=S)N1CCC(c2nc(C3=NOC(c4ccccc4)C3)cs2)CC1 (stereo not drawn) [Compound 130, 1-[4-[4-(4,5-dihydro-5-phenyl-3-isoxazolyl)-2-thiazolyl]-1-piperidinyl]-2-[5-methyl-3-(trifluoromethyl)-1H-pyrazol-1-yl]ethanethione]	–	–	–	–	–	–	pest or weed control at 10 µg/mL ([1]; ** tested at l0 ppm): 100%; pest or weed control at 10 µg/mL [2]: 100%; pest or weed control at 10 µg/mL [3]: 99%
Cc1cc(C(F)(F)F)nn1CC(=O)N1CCC(c2nc(-c3cccc(Cl)c3)cs2)CC1 [Compound 123]	–	–	–	95	68	0	–
Cc1cc(C(F)(F)F)nn1CC(=O)N1CCC(c2nc(-c3cc(-c4ccccc4)no3)cs2)CC1 [Compound 30]	–	–	–	–	–	–	Percent Disease Control, Test A ([1]; ** tested at l0 ppm): 31%; Percent Disease Control, Test B ([2]; ** tested at l0 ppm): 57%; Percent Disease Control, Test C ([3]; ** tested at l0 ppm): 50%
COC(=O)C1CC(c2csc(C3CCN(C(=O)Cn4nc(C(F)(F)F)cc4C)CC3)n2)=NO1 (stereo not drawn) [Compound 55]	–	–	–	17	26	0	–
Cc1cc(C(F)(F)F)nn1CC(=O)N1CCC(c2nc(C3=NOC4(CCC(C#N)CC4)C3)cs2)CC1 (single isomer, unassigned) [Compound 256]	100	100	99	–	–	–	–
Cc1cc(C(F)(F)F)nn1CC(=O)N1CCC(c2nc(C3=NOC(C[S+](C)[O-])(c4ccccc4)C3)cs2)CC1 (stereo not drawn) [Compound 144]	99	100	93	–	–	–	–
Cc1cc(C(F)(F)F)nn1CC(=O)N1CCC(c2nc(C3=NOC(n4oc(=O)n(C(C)C)c4=O)C3)cs2)CC1 (stereo not drawn) [Compound 244]	98	100	99	–	–	–	–
CCC1(c2ccccc2)CC(c2csc(C3CCN(C(=O)Cn4nc(C(F)(F)F)cc4C)CC3)n2)=NO1 (stereo not drawn) [Compound 105]	100	100	99	–	–	–	–
Cc1cc(C(F)(F)F)nn1CC(=O)N1CCC(c2nc(-c3ccc(C#N)cc3)cs2)CC1 [Compound 247]	99	100	88	–	–	–	–
